The values that follow come from US12673954B2 (BRISTOL-MYERS SQUIBB COMPANY, priority 2021, dated 2026).

The subject of test [1] is IRF pathway, THP1-Dual™ cells. The experiment in a line: STING reporter assay in THP1-Dual cells, IRF pathway (Lucia luciferase, QUANTI-Luc). In kind it is cell-based, human. Particulars: Homo sapiens, THP1-Dual, 20 h, read-out: IRF (EC50 μM). In a few lines:
(§1)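 THP-1-derived dual-reporter cells treated with serially diluted compounds (final top concentration 100 μM) for 20 h at 37° C. NF-κB read as SEAP via QUANTI-Blue at OD620; IRF read as Lucia luminescence via QUANTI-Luc after 5 min. 100% activation set by 100 μM cGAMP, baseline by DMSO.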
(In general: Reporter assays use an easily measured gene product as a stand-in for the process of interest.)

Test [2] has as its system NF-κB pathway, THP1-Dual™ cells. Description: STING reporter assay in THP1-Dual cells, NF-κB pathway (SEAP, QUANTI-Blue). In kind it is cell-based, human. Particulars: Homo sapiens, THP1-Dual, 20 h, read-out: NFkB (EC50 μM). In a few lines:
as §1

[3] abbreviates: THP1-Dual cells, 10% human plasma, 20 hours, Lucia luciferase, 100% activation = 100 μM cGAMP.
Where [4] appears, read: THP1-Dual cells, 10% human plasma, 20 hours, SEAP, 100% activation = 100 μM cGAMP.

The structures appear in SMILES notation. Read-outs that look alike come from different tables or passages of the source.

Usually EC50 stands for the midpoint of the concentration-response curve. Regarding `C[C@@H](OC(=O)Cc1cc(F)cc2cc(CNC(=O)c3cnn4cccnc34)oc12)C(F)(F)F` [EXAMPLE 367, (R)-1,1,1-Trifluoropropan-2-yl 2-(5-fluoro-2-((pyrazolo[1,5-a]pyrimidine-3-carboxamido)methyl)benzofuran-7-yl)acetate], the EC50 in test [1] (setting [3]) amounted to 7.5 µM; in test [2] (setting [4]), 9.5 µM.

Consider `O=C(OCC(F)(F)F)c1cc(Cl)cc2cc(CNC(=O)c3cnc4cccnn34)oc12` [EXAMPLE 369, 2,2,2-Trifluoroethyl 5-chloro-2-((imidazo[1,2-b]pyridazine-3-carboxamido)methyl)benzofuran-7-carboxylate], for which the results for the 50% effective concentration (EC50) in test [1] (setting [3]) and in test [2] (setting [4]) were 0.91 µM and 1.1 µM, respectively.

In the case of `O=C(OCC(F)(F)F)c1cc(Cl)cc2cc(CN3CCc4ccncc4C3=O)oc12` [EXAMPLE 370, 2,2,2-Trifluoroethyl 5-chloro-2-((1-oxo-3,4-dihydro-2,7-naphthyridin-2(1H)-yl)methyl)benzofuran-7-carboxylate], the EC50 in test [1] (setting [3]) was 13 µM; in test [2] (setting [4]), 16 µM.

Take `O=C(OCC(F)(F)F)c1cc(Cl)cc2cc(Cn3cnc4ccncc4c3=O)oc12` [EXAMPLE 371, 2,2,2-Trifluoroethyl 5-chloro-2-((4-oxopyrido[4,3-d]pyrimidin-3(4H)-yl)methyl)benzofuran-7-carboxylate]: the concentration giving a half-maximal response (EC50) came out at 2.5 µM in test [1] (setting [3]) and 2.8 µM in test [2] (setting [4]).

In the case of `O=C(OCC(F)(F)F)c1cc(Cl)cc2cc(Cn3ccc4ccncc4c3=O)oc12` [EXAMPLE 372, 2,2,2-Trifluoroethyl 5-chloro-2-((1-oxo-2,7-naphthyridin-2(1H)-yl)methyl)benzofuran-7-carboxylate], the figures for the EC50 in test [1] (setting [3]) and in test [2] (setting [4]) were 3.7 µM and 4.6 µM, respectively.

As for `O=C(NCc1cc2cc(Cl)cc(C(=O)OCC(F)(F)F)c2o1)c1cnccn1` [EXAMPLE 373, 2,2,2-Trifluoroethyl 5-chloro-2-((pyrazine-2-carboxamido)methyl)benzofuran-7-carboxylate], the EC50 in test [1] (setting [3]) and in test [2] (setting [4]) was 3.9 µM throughout.

For the compound `Cc1cc(C(=O)OCC(F)(F)F)c2oc(Cn3cnc4ccncc4c3=O)cc2c1` [EXAMPLE 374, 2,2,2-Trifluoroethyl 5-methyl-2-((4-oxopyrido[4,3-d]pyrimidin-3(4H)-yl)methyl)benzofuran-7-carboxylate], the EC50 in test [1] (setting [3]) stood at 4.3 µM; in test [2] (setting [4]), 3.5 µM.

Regarding `Cc1cc(C(=O)OCC(F)(F)F)c2oc(Cn3ccc4ccncc4c3=O)cc2c1` [EXAMPLE 375, 2,2,2-Trifluoroethyl 5-methyl-2-((1-oxo-2,7-naphthyridin-2(1H)-yl)methyl) benzofuran-7-carboxylate], the EC50 in test [1] (setting [3]) is 2.6 µM; in test [2] (setting [4]), 2.3 µM.

For `Cc1cc(C(=O)OCC(F)(F)F)c2oc(CN3CCc4ccncc4C3=O)cc2c1` [EXAMPLE 376, 2,2,2-Trifluoroethyl 5-methyl-2-((1-oxo-3,4-dihydro-2,7-naphthyridin-2(1H)-yl)methyl)benzofuran-7-carboxylate], the EC50 in test [1] (setting [3]) was 19 µM; in test [2] (setting [4]), 16 µM.

Turning to `Cc1cc(C(=O)OCC(F)(F)F)c2oc(CNC(=O)c3cnn4cccnc34)cc2c1` [EXAMPLE 377, 2,2,2-Trifluoroethyl 5-methyl-2-((pyrazolo[1,5-a]pyrimidine-3-carboxamido)methyl)benzofuran-7-carboxylate], the EC50 in test [1] (setting [3]) came out at 0.4 µM; in test [2] (setting [4]), 0.3 µM.

Take `Cc1cc(C(=O)OC(C)C(F)(F)F)c2oc(CNC(=O)c3cnn4cccnc34)cc2c1` (centres unmarked) [EXAMPLE 378, 1,1,1-Trifluoropropan-2-yl 5-methyl-2-((pyrazolo[1,5-a]pyrimidine-3-carboxamido)methyl)benzofuran-7-carboxylate]: the EC50 in test [1] (setting [3]) amounted to 1.3 µM; in test [2] (setting [4]) it was 1.2 µM.

Regarding `CCOC(=O)c1c(C)ccc2cc(CNC(=O)c3cnn4cccnc34)oc12` [EXAMPLE 379, Ethyl 6-methyl-2-((pyrazolo[1,5-a]pyrimidine-3-carboxamido)methyl)benzofuran-7-carboxylate], the EC50 in test [1] (setting [3]) was found to be 13 µM; in test [2] (setting [4]), 19 µM.

For the compound `CSC(=O)c1cccc2cc(CNC(=O)c3cnccn3)oc12` [EXAMPLE 381, S-Methyl 2-((pyrazine-2-carboxamido)methyl)benzofuran-7-carbothioate], the EC50 came to 13 µM in test [1] (setting [3]) and 12 µM in test [2] (setting [4]).

On to `CSC(=O)c1cc(F)cc2cc(CNC(=O)c3cnn4cccnc34)oc12` [EXAMPLE 382, S-Methyl 5-fluoro-2-((pyrazolo[1,5-a]pyrimidine-3-carboxamido)methyl)benzofuran-7-carbothioate], for which the EC50 in test [1] (setting [3]) was 1.3 µM; in test [2] (setting [4]), 1.1 µM.

`CSC(=O)c1cc(F)cc2cc(CNC(=O)c3cnc4cccnn34)oc12` [EXAMPLE 383, S-Methyl 5-fluoro-2-((imidazo[1,2-b]pyridazine-3-carboxamido)methyl)benzofuran-7-carbothioate]: the EC50 worked out at 0.92 µM in test [1] (setting [3]) and 1.1 µM in test [2] (setting [4]).

Take `CSC(=O)c1cc(F)cc2cc(CNC(=O)c3cnccn3)oc12` [EXAMPLE 384, S-Methyl 5-fluoro-2-((pyrazine-2-carboxamido)methyl)benzofuran-7-carbothioate]: the EC50 turned out to be 3.2 µM in test [1] (setting [3]) and 3 µM in test [2] (setting [4]).

With `CSC(=O)c1cc(F)cc2cc(Cn3cnc4ccncc4c3=O)oc12` [EXAMPLE 385, S-Methyl 5-fluoro-2-((4-oxopyrido[4,3-d]pyrimidin-3(4H)-yl)methyl)benzofuran-7-carbothioate], the EC50 was found to be 2.1 µM in test [1] (setting [3]) and 2.5 µM in test [2] (setting [4]).

As for `CSC(=O)c1cc(F)cc2cc(CN3CCc4ccncc4C3=O)oc12` [EXAMPLE 386, S-Methyl 5-fluoro-2-((1-oxo-3,4-dihydro-2,7-naphthyridin-2(1H)-yl)methyl)benzofuran-7-carbothioate], the EC50 in test [1] (setting [3]) was 3.4 µM; in test [2] (setting [4]) it was 3.7 µM.

Regarding `CCSC(=O)c1cc(F)cc2cc(CNC(=O)c3cnn4cccnc34)oc12` [EXAMPLE 387, S-Ethyl 5-fluoro-2-((pyrazolo[1,5-a]pyrimidine-3-carboxamido)methyl)benzofuran-7-carbothioate], the EC50 in test [1] (setting [3]) came to 1.9 µM; in test [2] (setting [4]), 2.1 µM.

Consider `O=C(SCC(F)(F)F)c1cc(F)cc2cc(CNC(=O)c3cnn4cccnc34)oc12` [EXAMPLE 388, S-(2,2,2-Trifluoroethyl) 5-fluoro-2-((pyrazolo[1,5-a]pyrimidine-3-carboxamido)methyl)benzofuran-7-carbothioate], for which the EC50 in test [1] (setting [3]) worked out at 1.5 µM; in test [2] (setting [4]), 1.4 µM.

On to `Cc1cc(C(=O)SCC(F)(F)F)c2oc(CNC(=O)c3cnn4cccnc34)cc2c1` [EXAMPLE 389, S-(2,2,2-Trifluoroethyl) 5-methyl-2-((pyrazolo[1,5-a]pyrimidine-3-carboxamido)methyl)benzofuran-7-carbothioate], for which the results for the concentration for a half-maximal effect (EC50) in test [1] (setting [3]) and in test [2] (setting [4]) were 0.58 µM and 0.56 µM, respectively.

Regarding `CCSC(=O)c1cc(C)cc2cc(CNC(=O)c3cnn4cccnc34)oc12` [EXAMPLE 390, S-Ethyl 5-methyl-2-((pyrazolo[1,5-a]pyrimidine-3-carboxamido)methyl)benzofuran-7-carbothioate], the figures for the EC50 in test [1] (setting [3]) and in test [2] (setting [4]) were 0.53 µM and 0.29 µM, respectively.

For the compound `CSC(=O)c1cc(C)cc2cc(CNC(=O)c3cnn4cccnc34)oc12` [EXAMPLE 391, S-Methyl 5-methyl-2-((pyrazolo[1,5-a]pyrimidine-3-carboxamido)methyl)benzofuran-7-carbothioate], the results for the EC50 in test [1] (setting [3]) and in test [2] (setting [4]) were 0.75 µM and 0.61 µM, respectively.

As for `C[Si](C)(C)CCSC(=O)c1cc(F)cc2c(Cl)c(CNC(=O)c3cnn4cccnc34)oc12` [EXAMPLE 392, S-(2-(Trimethylsilyl)ethyl) 3-chloro-5-fluoro-2-((pyrazolo[1,5-a]pyrimidine-3-carboxamido)methyl)benzofuran-7-carbothioate], the EC50 is 3.4 µM in test [1] and 2.7 µM in test [2].

On to `CSC(=O)c1cc(F)cc2c(Cl)c(CNC(=O)c3cnn4cccnc34)oc12` [EXAMPLE 393, S-Methyl 3-chloro-5-fluoro-2-((pyrazolo[1,5-a]pyrimidine-3-carboxamido)methyl)benzofuran-7-carbothioate], for which the EC50 in test [1] (setting [3]) was found to be 0.39 µM; in test [2] (setting [4]), 0.3 µM.

`C[Si](C)(C)CCSC(=O)c1cc(Cl)cc2cc(CNC(=O)c3cnn4cccnc34)oc12` [EXAMPLE 394]: the EC50 is > 100 µM in test [1] and 11 µM in test [2].

Regarding `CSC(=O)c1cc(Cl)cc2cc(CNC(=O)c3cnn4cccnc34)oc12` [EXAMPLE 395], the EC50 came to 2.1 µM in test [1] (setting [3]) and 1.9 µM in test [2] (setting [4]).

`CSC(=O)c1cc(Cl)cc2c(Cl)c(CNC(=O)c3cnn4cccnc34)oc12` [EXAMPLE 396]: the EC50 in test [1] (setting [3]) worked out at 0.36 µM; in test [2] (setting [4]), 0.37 µM.

Turning to `CSC(=O)c1cc(C)cc2c(Cl)c(CNC(=O)c3cnn4cccnc34)oc12` [EXAMPLE 397], the figures for the EC50 in test [1] (setting [3]) and in test [2] (setting [4]) were 0.46 µM and 0.47 µM, respectively.

Consider `C[C@H](NC(=O)c1cnn2cccnc12)c1cc2cc(F)cc(C(=O)SCC[Si](C)(C)C)c2o1` [EXAMPLE 398, S-(2-(Trimethylsilyl)ethyl) (S)-5-fluoro-2-(1-(pyrazolo[1,5-a]pyrimidine-3-carboxamido)ethyl)benzofuran-7-carbothioate], for which the concentration for a half-maximal effect (EC50) in test [1] stood at 9.4 µM; in test [2], 5.7 µM.

Turning to `CSC(=O)c1cc(F)cc2cc([C@H](C)NC(=O)c3cnn4cccnc34)oc12` [EXAMPLE 399, S-Methyl (S)-5-fluoro-2-(1-(pyrazolo[1,5-a]pyrimidine-3-carboxamido)ethyl)benzofuran-7-carbothioate], the EC50 was determined as 1.3 µM in test [1] (setting [3]) and 1.5 µM in test [2] (setting [4]).
